Laboratory results as given in the supplement of paper PMC10307832.

Columns and labels:
Assay in all cases: relative viability (nuclei count vs DMSO), 5 days (fraction); higher = more cells survive
[1] = compound: CC[C@@H]1C(=O)N(C)c2cnc(Nc3ccc(C(=O)NC4CCN(C)CC4)cc3OC)nc2N1C1CCCC1 [BI-2536] + CCNC(=O)c1noc(-c2cc(C(C)C)c(O)cc2O)c1-c1ccc(CN2CCOCC2)cc1 [Luminespib] (partner 0.01 µM)
Method in brief: (§1)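 Five library-drug doses in √10 steps were combined with a fixed anchor-drug dose, or a single drug was given alone, by pin tool to lung cancer cell lines in 1536-well plates the day after seeding. Nuclei were stained and counted after 5 days. Relative viability is the nuclei count in treated wells over that in vehicle wells, taken as the median of duplicate plates.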

[2] = compound: CC[C@@H]1C(=O)N(C)c2cnc(Nc3ccc(C(=O)NC4CCN(C)CC4)cc3OC)nc2N1C1CCCC1 [BI-2536] + Cc1nc(NC(=O)N2CCC[C@H]2C(N)=O)sc1-c1ccnc(C(C)(C)C(F)(F)F)c1 [Alpelisib] (partner 2 µM)
Method in brief: as §1

[3] = compound: CC1CC(=O)N(C2=CN=C(N=C2N1C3CCCC3)NC4=C(C=C(C=C4)C(=O)NC5CCN(CC5)C)OC)C [NPK76-II-72-1] + N=C(N)NC(=N)NCCc1ccccc1 [Phenformin] (partner 250 µM)
Method in brief: as §1

[4] = compound: CC1CC(=O)N(C2=CN=C(N=C2N1C3CCCC3)NC4=C(C=C(C=C4)C(=O)NC5CCN(CC5)C)OC)C [NPK76-II-72-1] + CC1(C)CCC(c2ccc(Cl)cc2)=C(CN2CCN(c3ccc(C(=O)NS(=O)(=O)c4ccc(N[C@H](CCN5CCOCC5)CSc5ccccc5)c(S(=O)(=O)C(F)(F)F)c4)cc3)CC2)C1 [Navitoclax] (partner 0.5 µM)
Method in brief: as §1

Cell Line | relative viability ([1]; first compound 0.01 µM) | relative viability ([1]; first compound 0.03162 µM) | relative viability ([1]; first compound 0.1 µM) | relative viability ([1]; first compound 0.3162 µM) | relative viability ([1]; first compound 1 µM) | relative viability ([2]; first compound 0.01 µM) | relative viability ([2]; first compound 0.03162 µM) | relative viability ([2]; first compound 0.1 µM) | relative viability ([2]; first compound 0.3162 µM) | relative viability ([2]; first compound 1 µM) | relative viability ([3]; first compound 0.01 µM) | relative viability ([3]; first compound 0.03162 µM) | relative viability ([3]; first compound 0.1 µM) | relative viability ([3]; first compound 0.3162 µM) | relative viability ([3]; first compound 1 µM) | relative viability ([4]; first compound 0.01 µM) | relative viability ([4]; first compound 0.03162 µM) | relative viability ([4]; first compound 0.1 µM) | relative viability ([4]; first compound 0.3162 µM) | relative viability ([4]; first compound 1 µM)
201T | 1.02 | 0.999 | 1.05 | 0.349 | 0.318 | 0.997 | 1.03 | 0.973 | 0.441 | 0.285 | 0.423 | 0.461 | 0.407 | 0.461 | 0.433 | 1.18 | 1.18 | 1.23 | 1.2 | 1.19
A549 |  |  |  |  |  | 0.767 | 0.814 | 0.698 | 0.0447 | 0.0443 |  | 0.136 | 0.222 | 0.155 | 0.192 | 1.17 | 1.29 | 1.22 | 1.12 | 1.15
A-427 | 0.841 | 0.829 | 0.525 | 0.144 | 0.137 | 1.11 | 1.04 | 1.03 | 0.381 | 0.136 | 0.263 | 0.309 | 0.341 | 0.295 | 0.397 | 1.01 | 0.941 | 0.92 | 1.05 | 0.96
ABC-1 | 0.54 | 0.293 |  | 0.28 | 0.39 | 1.08 | 1.13 | 0.732 | 0.296 | 0.3 | 0.264 | 0.223 | 0.202 | 0.258 | 0.28 |  |  |  |  | 
BEN | 0.486 | 0.611 | 0.282 | 0.158 | 0.217 | 1.05 | 0.779 | 0.695 | 0.261 | 0.245 | 0.229 | 0.228 | 0.276 | 0.245 | 0.253 | 0.0828 | 0.0731 | 0.0563 | 0.0637 | 0.063
CAL-12T | 0.774 | 0.229 | 0.173 | 0.124 | 0.202 | 1.13 | 1.07 | 1.08 | 0.173 | 0.141 | 0.563 | 0.56 | 0.562 | 0.554 | 0.619 | 1.15 | 1.32 | 1.22 | 1.02 | 1.18
COR-L23 | 0.668 | 0.705 | 0.171 | 0.106 | 0.122 | 0.853 | 0.675 | 0.18 | 0.0928 | 0.0868 | 0.397 | 0.453 | 0.491 | 0.434 | 0.438 | 0.823 | 0.969 | 0.92 | 0.995 | 1.03
COR-L 105 | 0.882 | 0.514 | 0.434 | 0.325 | 0.327 | 0.744 | 1.07 | 0.817 | 0.252 | 0.26 | 0.491 | 0.541 | 0.409 | 0.474 | 0.551 | 0.801 | 0.742 | 0.799 | 0.717 | 0.761
Calu-6 |  |  |  |  |  | 0.985 | 0.682 | 0.285 | 0.0989 | 0.126 |  |  |  |  |  | 0.879 | 0.942 | 0.894 | 0.809 | 0.889
ChaGo-K-1 | 0.691 | 0.615 | 0.529 | 0.16 | 0.178 |  |  |  |  |  | 0.472 | 0.575 | 0.544 | 0.476 | 0.478 | 0.937 | 0.955 | 1.09 | 0.944 | 0.64
EBC-1 |  |  |  |  |  | 0.852 | 0.799 | 0.564 | 0.175 | 0.179 |  |  |  |  |  | 0.35 | 0.36 | 0.376 | 0.417 | 0.485
EKVX | 0.911 | 0.955 | 0.8 | 0.292 | 0.123 | 0.933 | 0.826 | 0.791 | 0.175 | 0.138 | 0.221 | 0.237 | 0.225 | 0.147 | 0.252 | 0.909 | 1.03 | 0.865 | 0.648 | 1.13
EMC-BAC-2 | 1.22 | 1.19 | 1.08 | 0.251 | 0.22 | 0.741 | 0.886 | 0.604 | 0.161 | 0.12 | 0.521 | 0.546 | 0.54 | 0.55 | 0.634 | 1.13 | 1.17 | 1.1 | 1.17 | 1.19
EPLC-272H | 0.293 | 0.166 | 0.153 | 0.102 | 0.0894 | 0.951 | 0.758 |  | 0.0883 | 0.114 | 0.304 |  | 0.259 | 0.229 | 0.343 | 1.06 | 0.97 | 1.12 | 1.09 | 1.35
H3255 | 0.846 | 1.13 | 0.691 | 0.239 | 0.359 | 0.691 | 0.492 | 0.37 | 0.252 | 0.241 | 0.365 | 0.326 | 0.376 | 0.31 | 0.37 | 0.556 | 0.494 | 0.52 | 0.173 | 0.639
HARA | 0.784 | 1.46 | 0.148 | 0.0637 | 0.0578 | 1.03 | 0.927 | 0.843 | 0.062 | 0.0695 | 0.419 | 0.408 | 0.486 | 0.434 | 0.509 | 1.12 | 1.14 | 1.13 | 1.08 | 1.15
HCC-15 | 0.265 | 0.339 | 0.144 | 0.116 | 0.134 | 0.835 | 0.73 | 0.691 | 0.142 | 0.117 | 0.456 | 0.564 | 0.462 | 0.444 | 0.494 | 0.692 | 0.739 | 0.662 | 0.686 | 0.804
HCC-44 | 1.03 | 0.261 | 0.204 | 0.104 | 0.12 | 0.775 | 0.705 | 0.423 | 0.0667 | 0.0737 | 0.201 | 0.176 | 0.22 | 0.212 | 0.271 | 0.997 | 0.969 | 0.915 | 0.919 | 1.11
